Experiment [1] has as its target T1, purified lysoPLD from human serum (Homo sapiens, UniProt Q13822).
T1 construct: The purified lysoPLD from human serum; host or cells: human serum (purified; values quoted from Tokumura et al., J. Biol. Chem. 277:39436-42, 2002)
As to conditions: cited from earlier work.

For the next experiment, the target named is lysoPLD (Bos taurus, UniProt A1A4K5). As to conditions: 25° C. The procedure: FIG. 9 illustrates the evaluation of the fluorogenic substrate FS-1 using fetal bovine serum which is known to be a rich source of LPA that is “self-regenerating” through the in situ activity of lysoPLD. (Umezu-Goto, et al., Journal of Cell Biology, 158:227-33. (2002)) A 10 mM stock solution of FS-1 in MeOH was added to 50 μL solutions of 1% or 10% FBS in PBS and incubated at 25° C. overnight. Measurements were taken on a Hewlett Packard Fusion instrument at 1, 3, 5, and 18 hours.

As for `CCCCCCCCCCCCCCCC(=O)OC[C@@H](O)COP(=O)([O-])OCC[N+](C)(C)C` [16:0 LPC], in experiment [1], the Km was 260 µM and the Vmax is given as 103 nmol/min.

Take “DABCYL-aminoethyl (N-BODIPY-FL®-aminocaproyl)-2-tert-buiylglycerylphosphate [FS-1]”: the “fluorescence change on cleavage of the quenched substrate” value on lysoPLD (1% or 10% FBS in PBS, read at 1, 3, 5 and 18 hours, unoptimized assay) is “increase in fluorescence with time”. Also, the “substrate concentration of optimal conversion” value on lysoPLD (FBS in PBS) is 100 µM.

The term Km denotes the substrate concentration at which the rate is half of its maximum. One may read the Vmax as the top rate of the reaction or transport when substrate is in excess.

Source of the values: patent US8512971B2, “Compounds and methods of use thereof for assaying lysophospholipase D activity” (Echelon Biosciences, Inc., priority 2002, dated 2013).
